Results taken from US20180000085A1, “USE OF PICOLINAMIDE COMPOUNDS WITH FUNGICIDAL ACTIVITY” (DOW AGROSCIENCES LLC, priority 2014, published 2018).

Assays:
Assay type in all cases: in vivo
Leptosphaeria nodorum = assay: Wheat glume blotch (LEPTNO) disease control; details: 100 ppm, 1 Day Protectant
Description: All fungicides were evaluated using the aforementioned method for their activity vs. all target diseases, unless stated otherwise. Wheat leaf blotch and brown rust activity were also evaluated using track spray applications, in which case the fungicides were formulated as EC formulations, containing 0.1% Trycol 5941 in the spray solutions. Wheat plants (variety Yuma) were grown from seed in a greenhouse in 50% mineral soil/50% soil-less Metro mix until the first leaf was fully emerged, with 7-10 seedlings per pot. These plants were inoculated with an aqueous spore suspension of Zymoseptoria tritici either prior to or after fungicide treatments. After inoculation the plants were kept in 100% relative humidity (one day in a dark dew chamber followed by two to three days in a lighted dew chamber at 20° C.) to permit spores to germinate and infect the leaf. The plants were then transferred to a greenhouse set at 20° C. for disease to develop. When disease symptoms were fully expressed on the 1st leaves of untreated plants, infection levels were assessed on a scale of 0 to 100 percent disease severity. Percent disease control was calculated using the ratio of disease severity on treated plants relative to untreated plants. Example C: Evaluation of Fungicidal Activity: Wheat Glume Blotch (Leptosphaeria nodorum; Bayer Code […]) Wheat plants (variety Yuma) were grown from seed in a greenhouse in 50% mineral soil/50% soil-less Metro mix until the first leaf was fully emerged, with 7-10 seedlings per pot. These plants were inoculated with an aqueous spore suspension of Leptosphaeria nodorum 24 hr after fungicide treatments. After inoculation the plants were kept in 100% relative humidity (one day in a dark dew chamber followed by two days in a lighted dew chamber at 20° C.) to permit spores to germinate and infect the leaf. The plants were then transferred to a greenhouse set at 20° C. for disease to develop. Fungicide formulation, application and disease assessment followed the procedures as described in the Example A.

Cercospora beticola = assay: Leaf spot of sugar beets (CERCBE) disease control; details: 100 ppm; 1 Day Protectant; sugar beet
Description: All fungicides were evaluated using the aforementioned method for their activity vs. all target diseases, unless stated otherwise. Wheat leaf blotch and brown rust activity were also evaluated using track spray applications, in which case the fungicides were formulated as EC formulations, containing 0.1% Trycol 5941 in the spray solutions. Wheat plants (variety Yuma) were grown from seed in a greenhouse in 50% mineral soil/50% soil-less Metro mix until the first leaf was fully emerged, with 7-10 seedlings per pot. These plants were inoculated with an aqueous spore suspension of Zymoseptoria tritici either prior to or after fungicide treatments. After inoculation the plants were kept in 100% relative humidity (one day in a dark dew chamber followed by two to three days in a lighted dew chamber at 20° C.) to permit spores to germinate and infect the leaf. The plants were then transferred to a greenhouse set at 20° C. for disease to develop. When disease symptoms were fully expressed on the 1st leaves of untreated plants, infection levels were assessed on a scale of 0 to 100 percent disease severity. Percent disease control was calculated using the ratio of disease severity on treated plants relative to untreated plants. Example F: Evaluation of Fungicidal Activity: Leaf Spot of Sugar Beets (Cercospora beticola; Bayer Code CERCBE) Sugar beet plants (variety HH88) were grown in soil-less Metro mix and trimmed regularly to maintain a uniform plant size prior to test. Plants were inoculated with a spore suspension 24 hr after fungicide treatments. Inoculated plants were kept in a dew chamber at 22° C. for 48 hr then incubated in a greenhouse set at 24° C. under a clear plastic hood with bottom ventilation until disease symptoms were fully expressed. Fungicide formulation, application and disease assessment on the sprayed leaves followed the procedures as described in the Example A.

Phakopsora pachyrhizi = assay: Asian soybean rust (PHAKPA) disease control; parameters: key: A: > 80; B: ≤ 80; C: Not Tested; D: No Activity Observed in the Reported Assay; details: 25 ppm; for PHAKPA disease control, 1DP: 1 Day Protectant; for PHAKPA disease control, 3DC: 3 Day Curative
Venturia inaequalis = assay: Apple scab (VENTIN) disease control; details: 100 ppm, 1 Day Protectant
Description: All fungicides were evaluated using the aforementioned method for their activity vs. all target diseases, unless stated otherwise. Wheat leaf blotch and brown rust activity were also evaluated using track spray applications, in which case the fungicides were formulated as EC formulations, containing 0.1% Trycol 5941 in the spray solutions. Wheat plants (variety Yuma) were grown from seed in a greenhouse in 50% mineral soil/50% soil-less Metro mix until the first leaf was fully emerged, with 7-10 seedlings per pot. These plants were inoculated with an aqueous spore suspension of Zymoseptoria tritici either prior to or after fungicide treatments. After inoculation the plants were kept in 100% relative humidity (one day in a dark dew chamber followed by two to three days in a lighted dew chamber at 20° C.) to permit spores to germinate and infect the leaf. The plants were then transferred to a greenhouse set at 20° C. for disease to develop. When disease symptoms were fully expressed on the 1st leaves of untreated plants, infection levels were assessed on a scale of 0 to 100 percent disease severity. Percent disease control was calculated using the ratio of disease severity on treated plants relative to untreated plants. […] Seedlings with two expanding young leaves at the top (older leaves at bottom of the plants were trimmed) were used in the test. Plants were inoculated with a spore suspension of Venturia inaequalis 24 hr after fungicide treatment and kept in a 22° C. dew chamber with 100% relative humidity for 48 hr, and then moved to a greenhouse set at 20° C. for disease to develop. Fungicide formulation, application and disease assessment on the sprayed leaves followed the procedures as described in the Example A.

Pyricularia oryzae = details: 100 ppm; 1 Day Protectant; rice

Structure (SMILES) | LEPTNO disease control, 1DP (Leptosphaeria nodorum) | CERCBE disease control, 1DP (Cercospora beticola) | PHAKPA disease control, 1DP (Phakopsora pachyrhizi) | PHAKPA disease control, 3DC (Phakopsora pachyrhizi) | VENTIN disease control, 1DP (Venturia inaequalis) | PYRIOR disease control, 1DP (Pyricularia oryzae)
CCCOC(CC)C(Oc1ccccc1)C(C)OC(=O)C(C)NC(=O)c1nccc(OC)c1OCOC(C)=O (centres unmarked) [Cmpd 446] | A (> 80) | B (≤ 80) | A (> 80) | B (≤ 80) | – | –
COc1ccnc(C(=O)N[C@@H](C)C(=O)O[C@@H](C)[C@H](Oc2ccccc2)C(C)C)c1OCOC(C)=O [Cmpd 475] | A (> 80) | A (> 80) | A (> 80) | A (> 80) | A (> 80) | A (> 80)
CC[C@@H](CCOC)[C@@H](Oc1ccccc1)[C@H](C)OC(=O)[C@H](C)NC(=O)c1nccc(OC)c1OCOC(C)=O [Cmpd 476] | A (> 80) | B (≤ 80) | A (> 80) | B (≤ 80) | – | A (> 80)
COc1ccnc(C(=O)N[C@@H](C)C(=O)O[C@@H](C)[C@H](Oc2ccccc2)C(C)C)c1OC(C)=O [Cmpd 478] | A (> 80) | B (≤ 80) | A (> 80) | B (≤ 80) | – | A (> 80)
CC[C@@H](CCOC)[C@@H](Oc1ccccc1)[C@H](C)OC(=O)[C@H](C)NC(=O)c1nccc(OC)c1OC(C)=O [Cmpd 482] | A (> 80) | A (> 80) | – | – | – | A (> 80)
COc1ccnc(C(=O)N[C@@H](C)C(=O)O[C@H](C)[C@@H](Oc2ccccc2)c2ccccc2)c1OCOC(C)=O [Cmpd 547] | – | B (≤ 80) | B (≤ 80) | D | B (≤ 80) | –
COc1ccnc(C(=O)N[C@H](C)C(=O)O[C@H](C)[C@@H](Oc2ccccc2)C(C)C)c1OCOC(C)=O [Cmpd 548] | – | B (≤ 80) | B (≤ 80) | D | B (≤ 80) | –
COc1ccnc(C(=O)N[C@H](C)C(=O)O[C@H](C)[C@@H](Oc2ccccc2)c2ccccc2)c1OCOC(C)=O [Cmpd 549] | – | B (≤ 80) | D | D | B (≤ 80) | –
COc1ccnc(C(=O)N[C@@H](C)C(=O)O[C@@H](C)[C@@H](Oc2ccccc2)C(C)C)c1OCOC(C)=O [Cmpd 552] | – | B (≤ 80) | A (> 80) | B (≤ 80) | B (≤ 80) | –
COc1ccnc(C(=O)N[C@@H](C)C(=O)O[C@@H](C)[C@@H](CC(C)C)Oc2ccccc2)c1OCOC(C)=O [Cmpd 557] | – | B (≤ 80) | A (> 80) | B (≤ 80) | B (≤ 80) | –
COc1ccnc(C(=O)N[C@H](C)C(=O)O[C@@H](C)[C@H](Oc2ccccc2)C(C)C)c1OCOC(C)=O [Cmpd 558] | – | B (≤ 80) | B (≤ 80) | D | B (≤ 80) | –
COc1ccnc(C(=O)N[C@H](C)C(=O)O[C@@H](C)[C@@H](Oc2ccccc2)C(C)C)c1OCOC(C)=O [Cmpd 559] | – | B (≤ 80) | B (≤ 80) | B (≤ 80) | B (≤ 80) | –
COc1ccnc(C(=O)N[C@H](C)C(=O)O[C@H](C)[C@H](Oc2ccccc2)C(C)C)c1OCOC(C)=O [Cmpd 560] | – | B (≤ 80) | B (≤ 80) | D | B (≤ 80) | –
COc1ccnc(C(=O)N[C@@H](C)C(=O)O[C@@H](C)[C@H](Oc2cccc(Cl)c2)C(C)C)c1OC(C)=O [Cmpd 566] | A (> 80) | B (≤ 80) | A (> 80) | B (≤ 80) | – | –
COc1ccnc(C(=O)N[C@@H](C)C(=O)O[C@@H](C)[C@H](Oc2cccc(F)c2)c2ccccc2)c1OCOC(C)=O [Cmpd 574] | A (> 80) | A (> 80) | A (> 80) | B (≤ 80) | – | A (> 80)
CCC(CC)[C@@H](Oc1ccc(F)cc1)[C@H](C)OC(=O)[C@H](C)NC(=O)c1nccc(OC)c1OCOC(C)=O [Cmpd 587] | A (> 80) | A (> 80) | A (> 80) | B (≤ 80) | – | A (> 80)
COc1ccnc(C(=O)N[C@@H](C)C(=O)O[C@@H](C)[C@H](Oc2cc(F)cc(Cl)c2)C(C)C)c1OCOC(C)=O [Cmpd 617] | A (> 80) | B (≤ 80) | A (> 80) | B (≤ 80) | – | –
COc1ccnc(C(=O)N[C@@H](C)C(=O)O[C@@H](C)[C@H](Oc2cccc(Cl)c2)c2ccccc2)c1OCOC(C)=O [Cmpd 637] | B (≤ 80) | B (≤ 80) | A (> 80) | B (≤ 80) | – | B (≤ 80)
COc1ccnc(C(=O)N[C@@H](C)C(=O)O[C@@H](C)[C@H](Oc2ccccc2Cl)c2ccccc2)c1OC(C)=O [Cmpd 640] | A (> 80) | A (> 80) | B (≤ 80) | B (≤ 80) | – | A (> 80)
CCC(C)C(Oc1ccccc1)C(C)OC(=O)C(C)NC(=O)c1nccc(OC)c1OC(C)=O (centres unmarked) [Cmpd 691] | A (> 80) | B (≤ 80) | A (> 80) | B (≤ 80) | – | –
COc1ccnc(C(=O)N[C@@H](C)C(=O)O[C@@H](C)[C@@H](CC(C)C)Oc2ccccc2)c1OCOC(=O)C(C)C [Cmpd 1101] | B (≤ 80) | A (> 80) | A (> 80) | A (> 80) | – | B (≤ 80)
